How the values were obtained:
[1] = target: T1, mu opioid receptor (MOR) (Homo sapiens, UniProt P35372); assay: PathHunter β-arrestin recruitment assay, PAM mode with EC20 endomorphin-1; assay type: cell-based; settings: for allosteric activity for β-arrestin recruitment: EC20 endomorphin-1 concentration of 4.5 nM
Method in brief: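 β-Arrestin recruitment to the receptor was tracked by chemiluminescent β-galactosidase activity from complementing fragments (ED on receptor, EA on β-arrestin). Per-compound outputs were EC50 and percent maximal response.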

[2] = target: T1, mu opioid receptor (MOR); assay: Hit Hunter cAMP signaling assay (adenylyl cyclase inhibition), PAM mode with EC20 endomorphin-1; assay type: cell-based; settings: for allosteric activity for cAMP signaling: EC20 endomorphin-1 concentration of 0.45 nM; for Max. Response: cAMP
[3] = target: mu opioid receptor subtype OPRM1 (Homo sapiens, UniProt P35372); assay: β-arrestin recruitment assay, antagonist format; assay type: cell-based; settings: Table 18
Experimental: Beta-Arrestin Pathway: The PathHunter β-arrestin assay monitors the activation of a GPCR in a homogenous, non-imaging assay format using a technology developed by DiscoveRx called Enzyme Fragment Complementation (EFC) with beta-galactosidase (β-Gal) as the functional reporter. […] EA is fused to β-Arrestin and ED is fused to the GPCR of interest. When the GPCR is activated and β-arrestin is recruited to the receptor, ED and EA complementation occurs, restoring β-gal activity, which is measured using chemiluminescent PathHunter Detection Reagents.
Similar results were obtained when agonist and antagonist activity were assayed using cAMP signaling as the readout.

[4] = target: T2, MOR (Homo sapiens, UniProt P35372); assay: cell-based; settings: EC20 morphine agonism of MOR; for EC50: RC50, β-arrestin; for Max. Response: β-arrestin
[5] = target: T2, MOR; assay: cell-based; settings: EC20 morphine agonism of MOR; for EC50: RC50, cAMP; for Max. Response: cAMP
[6] = target: T2, MOR; assay: cell-based; settings: EC20 Oxycodone agonism of MOR; for EC50: RC50, β-arrestin; for Max. Response: β-arrestin
[7] = target: T2, MOR; assay: cell-based; settings: EC20 Oxycodone agonism of MOR; for EC50: RC50, cAMP; for Max. Response: cAMP
[8] = maximal response for β-arrestin recruitment
[9] = β-arrestin recruitment, read-out: β-arr. EC50
[10] = adenylyl cyclase inhibition, read-out: cAMP EC50
[11] = maximal response for adenylyl cyclase inhibition
[12] = β-arrestin, EC20 EM-1 agonism of MOR
[13] = β-arrestin, EC20 EM-1 agonism of MOR, read-out: RC50 (the source's name)
[14] = RC50, cAMP, EC20 EM-1 agonism of MOR
[15] = cAMP EC50, adenylyl cyclase inhibition

T1 sequence (P35372 whole entry, the tested form may be a part): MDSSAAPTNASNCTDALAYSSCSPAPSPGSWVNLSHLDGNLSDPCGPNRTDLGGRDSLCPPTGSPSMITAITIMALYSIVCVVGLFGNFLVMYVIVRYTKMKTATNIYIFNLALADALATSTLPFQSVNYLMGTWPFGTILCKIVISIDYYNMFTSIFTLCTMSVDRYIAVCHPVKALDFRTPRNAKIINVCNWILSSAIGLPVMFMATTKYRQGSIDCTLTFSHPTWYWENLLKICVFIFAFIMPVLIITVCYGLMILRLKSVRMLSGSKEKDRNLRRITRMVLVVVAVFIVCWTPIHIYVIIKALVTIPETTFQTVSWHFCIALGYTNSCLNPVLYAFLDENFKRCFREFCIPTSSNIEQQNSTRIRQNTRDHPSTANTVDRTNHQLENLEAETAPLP
mu opioid receptor subtype OPRM1, sequence (P35372 whole entry, the tested form may be a part): as above
T2 sequence (P35372 whole entry): as the sequence (P35372 whole entry, the tested form may be a part) above

Row | SMILES | β-arr Max. Resp. [1, 8] | EC50 [1, 9] | EC50 [2, 10] | cAMP Max. Resp. [2, 11] | EC50 [2, 15] | further results
1 | COc1ccc(C2N(S(=O)(=O)c3ccc(Cl)cc3)CCC2(F)F)cc1Br (single isomer, unassigned) [Compound 110] | F (F represents a maximal response of > 60%) | > 2100 nM | > 2100 nM | F (F represents a maximal response of > 60%) | – | allosteric activity for β-arrestin recruitment [1]: moderate positive allosteric effect; allosteric activity for cAMP signaling [2]: moderate positive allosteric effect; IC50 [3]: > 25 µM
2 | Fc1cnc(Cl)nc1N1CCCCC1c1cccc(C(F)(F)F)c1 (single isomer, unassigned) [compound 8] | F (F represents a maximal response of > 60%) | < 700 nM | – | F (F represents a maximal response of > 60%) | 700 to 2100 nM | Max. Response [1, 12]: 213; EC50 [1, 13]: 330 nM; EC50 [2, 14]: 840 nM; Max. Response ([2]; EC20 EM-1 agonism of MOR): 76; EC50 [4]: 7110 nM; Max. Response [4]: 487; EC50 [5]: 2000 nM; Max. Response [5]: 44; EC50 [6]: 12900 nM; Max. Response [6]: 343; EC50 [7]: 1910 nM; Max. Response [7]: 56
3 | Fc1cnc(Cl)nc1N1CCCCC1c1cccc(C(F)(F)F)n1 (stereo not shown) [compound 123] | F (F represents a maximal response of > 60%) | 700 to 2100 nM | – | E (E represents a maximal response of 40-60%) | < 700 nM | Max. Response [1, 12]: 190; EC50 [1, 13]: 1020 nM; EC50 [2, 14]: 590 nM; Max. Response ([2]; EC20 EM-1 agonism of MOR): 43; EC50 [4]: 14100 nM; Max. Response [4]: 59; EC50 [5]: > 25000 nM; Max. Response [5]: 0; EC50 [6]: > 25000 nM; Max. Response [6]: 17; EC50 [7]: > 25000 nM; Max. Response [7]: 0
4 | COc1ccc(C2CC(C(F)(F)F)CN2S(=O)(=O)c2ccc(Cl)cc2)cc1Br (single isomer, unassigned) [Compound 109] | F (F represents a maximal response of > 60%) | > 2100 nM | < 700 nM | E (E represents a maximal response of 40-60%) | – | allosteric activity for β-arrestin recruitment [1]: moderate positive allosteric effect; allosteric activity for cAMP signaling [2]: moderate positive allosteric effect; IC50 [3]: > 25 µM
5 | COc1ccc(C2C(C(F)(F)F)CCN2S(=O)(=O)c2ccc(Cl)cc2)cc1Br (single isomer, unassigned) [Compound 108] | F (F represents a maximal response of > 60%) | > 2100 nM | > 2100 nM | E (E represents a maximal response of 40-60%) | – | allosteric activity for β-arrestin recruitment [1]: moderate positive allosteric effect; allosteric activity for cAMP signaling [2]: moderate positive allosteric effect; IC50 [3]: > 25 µM
6 | COc1ccc(C2C3CCC(C3)N2S(=O)(=O)c2ccc(Cl)cc2)cc1Br (stereo not shown) [Compound 177] | F (F represents a maximal response of > 60%) | > 2100 nM | > 2100 nM | E (E represents a maximal response of 40-60%) | – | allosteric activity for β-arrestin recruitment [1]: moderate positive allosteric effect; allosteric activity for cAMP signaling [2]: moderate positive allosteric effect; IC50 [3]: > 25 µM
7 | O=S(=O)(c1ccc(Cl)cc1)N1CCCCC1c1ccc2c(c1)OCO2 (stereo not shown) [compound 44] | F (F represents a maximal response of > 60%) | > 2100 nM | > 2100 nM | E (E represents a maximal response of 40-60%) | – | allosteric activity for β-arrestin recruitment [1]: moderate positive allosteric activity; signaling preference β-arrestin vs cAMP ([1]; comparison of β-arrestin and cAMP assays): equivalent effects on β-arrestin recruitment and cAMP signaling; β-arr. Max Resp. ([1]; maximal response for β-arrestin recruitment, Table 3): 99; EC50 ([1]; β-arrestin recruitment, Table 3, read-out: β-arr. EC50): 5670 nM; allosteric activity for cAMP signaling [2]: moderate positive allosteric activity; EC50 ([2]; adenylyl cyclase inhibition, Table 3, read-out: cAMP EC50): 3740 nM; cAMP Max Resp. ([2]; maximal response for adenylyl cyclase inhibition, Table 3): 57
8 | Fc1cc(C2CCCCN2Cc2cccc(Br)c2)cc(C(F)(F)F)c1 (stereo not shown) [compound 148] | F (F represents a maximal response of > 60%) | 700 to 2100 nM | – | E (E represents a maximal response of 40-60%) | > 2100 nM | –
9 | Fc1cnc(Cl)nc1N1CCCCC1c1cnc2cccnn12 (stereo not shown) [compound 337] | D (D represents a maximal response of < 40%) | < 700 nM | – | D (D represents a maximal response of < 40%) | < 700 nM | –
10 | Cc1cnc(N2CCCCC2c2cccc(C(F)(F)F)c2)nc1Cl (stereo not shown) [compound 266] | E (E represents a maximal response of 40-60%) | > 2100 nM | – | D (D represents a maximal response of < 40%) | > 2100 nM | –
11 | Fc1cnc(Cl)nc1N1CCCCC1c1cncnc1 (stereo not shown) [compound 378] | D (D represents a maximal response of < 40%) | < 700 nM | – | D (D represents a maximal response of < 40%) | < 700 nM | –
12 | Fc1cnc(Cl)nc1N1CCOCC1c1cccc(C(F)(F)F)n1 (racemic) [Compound 186] | E (E represents a maximal response of 40-60%) | > 2100 nM | > 2100 nM | D (D represents a maximal response of < 40%) | – | –
13 | Fc1cncc(C2CCCCN2c2nc(Cl)ncc2F)c1 (stereo not shown) [compound 370] | D (D represents a maximal response of < 40%) | < 700 nM | – | D (D represents a maximal response of < 40%) | < 700 nM | –
14 | Fc1ccc(CN2CCCCC2c2cccc(C(F)(F)F)n2)cc1Cl (stereo not shown) [compound 161] | F (F represents a maximal response of > 60%) | 700 to 2100 nM | – | E (E represents a maximal response of 40-60%) | 700 to 2100 nM | –
15 | O=S(=O)(c1ccc(Cl)cc1)N1CCCCC1c1ccc(Cl)c(C(F)(F)F)c1 (single isomer, unassigned) [compound 69] | F (F represents a maximal response of > 60%) | > 2100 nM | 700 to 2100 nM | D (D represents a maximal response of < 40%) | – | –
16 | FC(F)(F)c1cccc(C2CCCCN2Cc2cc(Cl)ccc2Cl)n1 (stereo not shown) [compound 176] | F (F represents a maximal response of > 60%) | 700 to 2100 nM | – | F (F represents a maximal response of > 60%) | 700 to 2100 nM | –
17 | N#Cc1cc(C2CCCCN2S(=O)(=O)c2ccc(Cl)cc2)ccn1 (racemic) [compound 80] | E (E represents a maximal response of 40-60%) | > 2100 nM | > 2100 nM | D (D represents a maximal response of < 40%) | – | –
18 | Fc1cnc(Cl)nc1N1CCC(F)CC1c1cccc(C(F)(F)F)c1 (stereo not shown) [compound 197] | F (F represents a maximal response of > 60%) | 700 to 2100 nM | – | F (F represents a maximal response of > 60%) | 700 to 2100 nM | –
19 | FC(F)(F)c1cccc(C2CCCCN2Cc2cc(Cl)ccn2)n1 (stereo not shown) [compound 162] | F (F represents a maximal response of > 60%) | > 2100 nM | – | E (E represents a maximal response of 40-60%) | > 2100 nM | –
20 | Cc1nccc(C2CCCCN2c2nc(Cl)ncc2F)n1 (stereo not shown) [compound 377] | D (D represents a maximal response of < 40%) | < 700 nM | – | D (D represents a maximal response of < 40%) | < 700 nM | –
21 | Fc1cnc(Cl)nc1N1CCCCC1c1cccc(C(F)(F)F)c1F (stereo not shown) [compound 355] | D (D represents a maximal response of < 40%) | < 700 nM | – | D (D represents a maximal response of < 40%) | < 700 nM | –

From US11071731B2, “Allosteric modulators of the mu opioid receptor” (Chiromics, LLC, priority 2017, dated 2021)
